As usually defined, the IC50 is the point on the concentration scale where inhibition reaches its midpoint.

The source of these data is patent publication US9505781B2, “Compositions comprising thienopyrimidine and thienopyridine compounds and methods of use thereof” (The Regents of the University of Michigan, priority 2013, dated 2016).

Where only a bound is given, the exact number is not on record here.

In this experiment the target is T1, menin-MLL interaction (Homo sapiens, UniProt O00255).
T1 sequence (O00255 1-610): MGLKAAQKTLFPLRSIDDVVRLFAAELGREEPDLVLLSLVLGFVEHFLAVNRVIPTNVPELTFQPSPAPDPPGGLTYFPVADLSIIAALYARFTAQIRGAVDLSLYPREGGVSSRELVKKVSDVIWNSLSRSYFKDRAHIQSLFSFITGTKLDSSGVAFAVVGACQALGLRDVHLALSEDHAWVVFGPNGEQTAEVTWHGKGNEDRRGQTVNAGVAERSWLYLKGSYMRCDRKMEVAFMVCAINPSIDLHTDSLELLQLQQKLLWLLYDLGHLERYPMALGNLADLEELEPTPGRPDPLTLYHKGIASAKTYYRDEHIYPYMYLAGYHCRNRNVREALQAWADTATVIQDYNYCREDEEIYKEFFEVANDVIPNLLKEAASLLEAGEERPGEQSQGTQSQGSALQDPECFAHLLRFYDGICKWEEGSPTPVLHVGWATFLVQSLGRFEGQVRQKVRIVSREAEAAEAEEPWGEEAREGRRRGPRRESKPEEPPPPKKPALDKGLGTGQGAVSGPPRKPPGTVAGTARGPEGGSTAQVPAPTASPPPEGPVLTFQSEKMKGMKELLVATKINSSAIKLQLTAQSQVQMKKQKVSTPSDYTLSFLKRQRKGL
In words: biochemical.
Description: Compounds that inhibit the interaction decrease the fluorescence anisotropy which is being used as a read-out for compound screening and for IC50 determination.
`CNCCS(=O)(=O)Nc1ccc(CC(=O)N2CCN(c3ncnc4sc(CC(F)(F)F)cc34)CC2)cc1` [Compound 58] came in with an IC50 of less than 100 nM. On to `CN(C)CCS(=O)(=O)Nc1ccc(CC(=O)N2CCN(c3ncnc4sc(CC(F)(F)F)cc34)CC2)cc1` [Compound 59], for which the IC50 was less than 100 nM. `CC(C)NCCS(=O)(=O)Nc1ccc(CC(=O)N2CCN(c3ncnc4sc(CC(F)(F)F)cc34)CC2)cc1` [Compound 60] returned an IC50 of less than 100 nM. The value for `CS(=O)(=O)N(CC#N)c1ccc(CC(=O)N2CCN(c3ncnc4sc(CC(F)(F)F)cc34)CC2)cc1` [Compound 61] was less than 100 nM; that for `O=C(Cc1ccc(NS(=O)(=O)CNCC(F)(F)F)cc1)N1CCN(c2ncnc3sc(CC(F)(F)F)cc23)CC1` [Compound 62] was less than 100 nM. The result for `CS(=O)(=O)N(CC#N)c1ccc(CC(=O)N2CCN(C3=NC=NC4SC(CC(F)(F)F)=CC34)CC2)c(Cl)c1` (stereo not drawn) [Compound 63] reads less than 100 nM; that for `CS(=O)(=O)Nc1ccc(CC(=O)N2CCN(C3=NC=NC4SC(CC(F)(F)F)=CC34)CC2)c(Cl)c1` (stereo not drawn) [Compound 64], less than 100 nM; that for `CN(c1ccc(CC(=O)N2CCN(C3=NC=NC4SC(CC(F)(F)F)=CC34)CC2)c(Cl)c1)S(C)(=O)=O` (stereo not drawn) [Compound 65], less than 100 nM. In turn, `CCN(c1ccc(CC(=O)N2CCN(C3=NC=NC4SC(CC(F)(F)F)=CC34)CC2)c(Cl)c1)S(C)(=O)=O` (stereo not drawn) [Compound 66] came in with an IC50 of less than 100 nM. The value for `O=C(Cc1ccccc1)N1CCN(c2ncnc3sc(CC(F)(F)F)cc23)CC1` [Compound 67] was 100 to 500 nM; that for `O=C(Cc1ccccc1O)N1CCN(c2ncnc3sc(CC(F)(F)F)cc23)CC1` [Compound 68] was 100 to 500 nM; that for `Nc1ccc(CC(=O)N2CCN(c3ncnc4sc(CC(F)(F)F)cc34)CC2)cc1` [Compound 69] was 100 to 500 nM.

Compound `O=C(Cc1ccccc1Cl)N1CCN(c2ncnc3sc(CC(F)(F)F)cc23)CC1` [Compound 70] showed an IC50 of 100 to 500 nM. As for `O=C(Cc1ccc(Cl)cc1)N1CCN(c2ncnc3sc(CC(F)(F)F)cc23)CC1` [Compound 71], the IC50 was in the range of 100 to 500 nM. The value for `O=C(Cc1ccccc1F)N1CCN(c2ncnc3sc(CC(F)(F)F)cc23)CC1` [Compound 72] was 100 to 500 nM; that for `O=C(Cc1cccc(F)c1)N1CCN(c2ncnc3sc(CC(F)(F)F)cc23)CC1` [Compound 73] was 100 to 500 nM; that for `COc1ccc(CC(=O)N2CCN(c3ncnc4sc(CC(F)(F)F)cc34)CC2)cc1` [Compound 74] was 100 to 500 nM.

As for `O=C(Cc1ccc(F)cc1)N1CCN(c2ncnc3sc(CC(F)(F)F)cc23)CC1` [Compound 75], the IC50 lay within 100 to 500 nM.

Compound `O=C(Cc1ccc(Cc2ccoc2)cc1)N1CCN(c2ncnc3sc(CC(F)(F)F)cc23)CC1` [Compound 76] showed an IC50 of 100 to 500 nM. In turn, `N#CCc1ccc(CC(=O)N2CCN(c3ncnc4sc(CC(F)(F)F)cc34)CC2)cc1` [Compound 77] yielded an IC50 of 100 to 500 nM. Regarding `NS(=O)(=O)Cc1ccc(CC(=O)N2CCN(c3ncnc4sc(CC(F)(F)F)cc34)CC2)c(F)c1` [Compound 78], the IC50 lay in the range of 100 to 500 nM. Turning to `O=C(Cc1ccc(CS(=O)(=O)C(F)(F)F)cc1)N1CCN(c2ncnc3sc(CC(F)(F)F)cc23)CC1` [Compound 79], the IC50 lay within 100 to 500 nM. The result for `O=C1CCC(c2ccc(CC(=O)N3CCN(c4ncnc5sc(CC(F)(F)F)cc45)CC3)cc2)N1` (stereo not drawn) [Compound 80] reads 100 to 500 nM; that for `O=C(Cc1ccc2cc[nH]c2c1)N1CCN(c2ncnc3sc(CC(F)(F)F)cc23)CC1` [Compound 81], 100 to 500 nM. The result for `CNS(=O)(=O)c1ccc(CC(=O)N2CCN(c3ncnc4sc(CC(F)(F)F)cc34)CC2)cc1` [Compound 82] reads 100 to 500 nM; that for `Cn1cc(S(=O)(=O)Nc2ccc(CC(=O)N3CCN(c4ncnc5sc(CC(F)(F)F)cc45)CC3)cc2)cn1` [Compound 83], 100 to 500 nM; that for `CS(=O)(=O)N(CC(N)=O)c1ccc(CC(=O)N2CCN(C3=NC=NC4SC(CC(F)(F)F)=CC34)CC2)c(Cl)c1` (stereo not drawn) [Compound 84], 100 to 500 nM.

As for `CS(=O)(=O)N(CC(F)(F)F)c1ccc(CC(=O)N2CCN(c3ncnc4sc(CC(F)(F)F)cc34)CC2)cc1` [Compound 85], the IC50 is 100 to 500 nM. The value for `O=C(N1CCCC1)N1CCN(c2ncnc3sc(CC(F)(F)F)cc23)CC1` [Compound 86] was 500 to 2000 nM. The result for `O=C(C1CCCCC1)N1CCN(c2ncnc3sc(CC(F)(F)F)cc23)CC1` [Compound 87] reads 500 to 2000 nM; that for `O=C(CCc1ccccc1)N1CCN(c2ncnc3sc(CC(F)(F)F)cc23)CC1` [Compound 88], 500 to 2000 nM.

With `O=C(CC1CCCCC1)N1CCN(c2ncnc3sc(CC(F)(F)F)cc23)CC1` [Compound 89], the IC50 fell in the range of 500 to 2000 nM. In the case of `O=C(CCC1CCCCC1)N1CCN(c2ncnc3sc(CC(F)(F)F)cc23)CC1` [Compound 90], the IC50 was in the range of 500 to 2000 nM. `O=C(N1CCCCC1)N1CCN(c2ncnc3sc(CC(F)(F)F)cc23)CC1` [Compound 91] displayed an IC50 of 500 to 2000 nM. The value for `O=C(COCc1ccccc1)N1CCN(c2ncnc3sc(CC(F)(F)F)cc23)CC1` [Compound 92] was 500 to 2000 nM; that for `O=C(CCCc1ccccc1)N1CCN(c2ncnc3sc(CC(F)(F)F)cc23)CC1` [Compound 93] was 500 to 2000 nM.

The compound `COc1ccccc1CC(=O)N1CCN(c2ncnc3sc(CC(F)(F)F)cc23)CC1` [Compound 94] showed an IC50 of 500 to 2000 nM.

The compound `COc1cccc(CC(=O)N2CCN(c3ncnc4sc(CC(F)(F)F)cc34)CC2)c1` [Compound 95] registered an IC50 of 500 to 2000 nM. The value for `NS(=O)(=O)Cc1cccc(CC(=O)N2CCN(c3ncnc4sc(CC(F)(F)F)cc34)CC2)c1` [Compound 96] was 500 to 2000 nM. `NS(=O)(=O)Cc1ccc(CC(=O)N2C[C@@H]3CC[C@H]2CN3c2ncnc3sc(CC(F)(F)F)cc23)cc1` [Compound 97] yielded an IC50 of 500 to 2000 nM. `CCCC(c1ccc(CC(=O)N2CCN(c3ncnc4sc(CC(F)(F)F)cc34)CC2)cc1)S(C)(=O)=O` (stereo not drawn) [Compound 98]: the IC50 was 500 to 2000 nM.

Compound `O=C1NCCC1c1ccc(CC(=O)N2CCN(c3ncnc4sc(CC(F)(F)F)cc34)CC2)cc1` (stereo not drawn) [Compound 99] yielded an IC50 of 500 to 2000 nM.

`CS(=O)(=O)N(CC1CCCC1)c1ccc(CC(=O)N2CCN(c3ncnc4sc(CC(F)(F)F)cc34)CC2)cc1` [Compound 100]: the IC50 was 500 to 2000 nM. The result for `CC(C)CN(c1ccc(CC(=O)N2CCN(c3ncnc4sc(CC(F)(F)F)cc34)CC2)cc1)S(C)(=O)=O` [Compound 101] reads 500 to 2000 nM. `CS(=O)(=O)N(CC1CC1)c1ccc(CC(=O)N2CCN(c3ncnc4sc(CC(F)(F)F)cc34)CC2)cc1` [Compound 102] registered an IC50 of 500 to 2000 nM. `CC(C)N(c1ccc(CC(=O)N2CCN(c3ncnc4sc(CC(F)(F)F)cc34)CC2)cc1)S(C)(=O)=O` [Compound 103] showed an IC50 of 500 to 2000 nM.

`CS(=O)(=O)N(CC#N)c1ccc(C(F)(F)C(=O)N2CCN(c3ncnc4sc(CC(F)(F)F)cc34)CC2)cc1` [Compound 104] showed an IC50 of 500 to 2000 nM. The value for `Oc1ccc(CN2CCC(Nc3ncnc4sc(CC(F)(F)F)cc34)CC2)cc1` [Compound 105, 4-((4-((6-(2,2,2-trifluoroethyl)thieno[2,3-d]pyrimidin-4-yl)amino)piperidin-1-yl)methyl)phenol] was less than 100 nM.
